From patent publication US12358948B2, “Neurotensinergic agonists and methods of using same preventing or treating pain” (priority 2019, dated 2025) come the findings set out here.

The target in assay [1] is T1, hNTS1 receptor (Homo sapiens, UniProt P30989).
T1 construct: membranes prepared from them
In words: Competitive radioligand binding assay on the hNTS1 receptor. The note with it: displacement of 125I-[Tyr3]-NT, membranes of CHO-K1 cells expressing hNTS1; read-out: IC50 NTS1. Here is the method:
(§1) CHO-K1 (Chinese Hamster Ovary) cells stably expressing hNTS1 and 1321N1 cells stably expressing hNTS2 (ES-690-C and ES-691-C from PerkinElmer, Montréal, Canada) were cultured respectively in Ham's F12 and in DMEM culture media. Culture media were supplemented with 10% FBS, 100 U/mL penicillin, 100 μg/mL streptomycin, 20 mM HEPES, and 0.4 mg/mL G418 at 37° C. in a humidified chamber at 5% CO2.
(§2) The cells expressing hNTS1 were frozen when they reached 80% confluency. They were scrapped off the dish with 10 mM Tris buffer, 1 mM EDTA, pH 7.5 and centrifuged at 15,000 g for 5 min at 4° C. The pellet was then re-suspended in 1 mL binding buffer. The cells expressing hNTS2 were also frozen when they reached 80% confluency. They were scraped off the dish with PBS, 0.5 mM EDTA, pH 7.5 and sonicated for 5 minutes (pulse 30 s/5 s off, amplitude 40%). They were ultracentrifuged at 100 000 g for 60 minutes at 4° C. The pellet was re-suspended in 1 mL freezing buffer (PBS, glycerol, 0.5 mM EDTA), sonicated for 1 minute (pulse 30 s/5 s off, amplitude 50%) and further diluted in binding buffer. Competitive radioligand binding experiments were performed by incubating 15 μg of cell membranes expressing the hNTS1 receptor with […] of ^125I-[Tyr^3]-NT (2200 Ci/mmol) or 50 μg of cell membranes expressing the hNTS2 receptor with […] of ^125I-[Tyr^3]-NT in binding buffer (50 mM Tris-HCl, pH 7.5, 0.2% BSA) in the presence of increasing concentrations of analogues ranging from 10^−11 to 10^−4 M for 60 min at 25° C. After incubation, the binding reaction mixture was transferred in PEI-coated 96-well filter plates (glass fiber filters GF/B, Millipore, Billerica, MA). Reaction was terminated by filtration, and plates were washed three times with 200 μL ice-cold binding buffer. Glass filters were then counted using a γ-counter (2470 Wizard2, PerkinElmer, Mississauga, Ontario, Canada). Non-specific binding was measured in the presence of 10^−5 M unlabeled NT (8-13) and represented less than 5% of total binding. IC50 values were determined from competition curves as the unlabeled ligand concentration inhibiting 50% of ^125I-[Tyr^3]-NT-specific binding.
(§3) Competitive radioligand binding data were plotted using the nonlinear regression One-site-Fit Log(IC50) and represented the mean±SEM of at least three independent experiments in triplicates.
(Displacement assays read how much labelled ligand stays bound in the presence of the test substance.)

Assay [2] addresses T2, hNTS2 receptor (Homo sapiens, UniProt O95665).
T2 construct: membranes prepared from them
Put plainly: Competitive radioligand binding assay on the hNTS2 receptor. The note with it: for IC50: displacement of 125I-[Tyr3]-NT, membranes of 1321N1 cells expressing hNTS2, read-out: IC50 NTS2 (converted); for Selectivity: ratio IC50 for NTS1 : IC50 for NTS2. Here is the method: as §1, §2, §3

*1 amine or outer side, *2 acyl side, *3 side chain or, on linkers, in order; H or OH if unused. Where a SMILES comes first, the peptide text is derived from it. Bridges are numbered along the chain shown (N, C = ends). [ ]: non-standard residue; d: D form. X2 = O=C([C@H](Cc1cc(F)c(F)cc1F)N[*:1])[*:2]; Ala(cPr) = N[C@@H](CC1CC1)C(=O)O; hCha = N[C@@H](CCC1CCCCC1)C(=O)O; tBuAla = CC(C)(C)C[C@H](N)C(=O)O; dAllylGly = C=CC[C@@H](N)C(=O)O; AllylGly = C=CC[C@H](N)C(=O)O; Cba = N[C@@H](CC1CCC1)C(=O)O; Nle = CCCC[C@H](N)C(=O)O; Orn = NCCC[C@H](N)C(=O)O; Dab = NCC[C@H](N)C(=O)O; Nva = CCC[C@H](N)C(=O)O; Dap = NC[C@H](N)C(=O)O

A word on the IC50: it is the point on the concentration scale where inhibition reaches its midpoint.

T1 sequence (P30989 whole entry): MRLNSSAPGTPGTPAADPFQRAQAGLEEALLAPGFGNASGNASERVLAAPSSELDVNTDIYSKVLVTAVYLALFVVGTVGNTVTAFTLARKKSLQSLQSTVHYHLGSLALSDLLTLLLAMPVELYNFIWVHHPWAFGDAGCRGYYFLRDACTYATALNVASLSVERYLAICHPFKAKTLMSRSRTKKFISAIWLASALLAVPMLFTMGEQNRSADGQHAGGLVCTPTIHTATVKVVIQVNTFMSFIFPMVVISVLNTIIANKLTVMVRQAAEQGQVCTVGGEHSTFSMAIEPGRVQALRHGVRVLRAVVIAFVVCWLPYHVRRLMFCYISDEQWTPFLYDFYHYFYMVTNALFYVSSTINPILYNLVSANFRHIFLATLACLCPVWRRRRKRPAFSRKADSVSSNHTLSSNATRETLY
T2 sequence (O95665 whole entry): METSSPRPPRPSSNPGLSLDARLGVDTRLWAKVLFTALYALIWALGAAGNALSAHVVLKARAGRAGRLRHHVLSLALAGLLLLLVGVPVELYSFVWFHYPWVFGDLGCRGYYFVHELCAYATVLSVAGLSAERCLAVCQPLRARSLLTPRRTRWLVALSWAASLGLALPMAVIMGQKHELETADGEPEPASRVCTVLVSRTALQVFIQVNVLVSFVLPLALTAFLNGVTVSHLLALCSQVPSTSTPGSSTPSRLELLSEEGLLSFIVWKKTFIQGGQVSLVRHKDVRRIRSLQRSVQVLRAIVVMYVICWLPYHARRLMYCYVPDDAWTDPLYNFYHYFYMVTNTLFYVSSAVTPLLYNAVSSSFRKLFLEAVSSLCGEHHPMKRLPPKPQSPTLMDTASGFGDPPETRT

As to `CC(C)C[C@H](NC(=O)[C@H](Cc1ccc(O)cc1)NC(=O)[C@H]1CC=CC[C@@H](N)C(=O)N[C@@H](CCCCN)C(=O)N[C@@H](CCCCN)C(=O)N1)C(=O)O` [compound 42, c[G*(All)KKG*(All)]YL] (H-[dAllylGly]KK[dAllylGly]YL-OH; staple 1-4), the IC50 in assay [1] is over 100 µM; in assay [2] it was 2300 nM. Moreover, the Selectivity in assay [2] was over 42.

`CC(C)C[C@H](NC(=O)[C@@H](Cc1c[nH]c2ccccc12)NC(=O)[C@@H]1CC=CC[C@H](N)C(=O)N[C@@H](CCCCN)C(=O)N[C@@H](CCCCN)C(=O)N1)C(=O)O` [compound 43, c[G(All)KKG(All)]W*L] (H-[AllylGly]KK[AllylGly][dW]L-OH; staple 1-4): in assay [1], the half-inhibitory concentration (IC50) was over 100 µM. Also, in assay [2], the IC50 is 968 nM and the Selectivity is listed as over 103.3.

Take `CC(C)C[C@H](NC(=O)[C@H](Cc1ccc(O)cc1)NC(=O)[C@@H]1CCCC[C@H](N)C(=O)N[C@@H](CCCCN)C(=O)N[C@@H](CCCCN)C(=O)N1)C(=O)O` [compound 47, Dihydro-c[G(All)KKG(All)]YL]: in assay [1], the IC50 is over 100 µM. Besides, in assay [2], the IC50 is 94 nM and the Selectivity is given as over 1064.

Take `CC(C)C[C@H](NC(=O)[C@@H](CCCCN)NC(=O)[C@@H]1CC=CC[C@H](N)C(=O)N[C@@H](CCCCN)C(=O)N[C@@H](CCCCN)C(=O)N1)C(=O)O` [compound 48, c[G(All)KKG(All)]K*L] (H-[AllylGly]KK[AllylGly][dK]L-OH; staple 1-4): the IC50 in assay [1] was over 100 µM. Further, in assay [2], the IC50 was 10100 nM and the Selectivity was over 10.

Turning to `CC(C)(C)C[C@H](NC(=O)[C@H](Cc1ccc(O)cc1)NC(=O)[C@@H]1CC=CC[C@H](N)C(=O)N[C@@H](CCCCN)C(=O)N[C@@H](CCCCN)C(=O)N1)C(=O)O` [compound 49, c[G(All)KKG(All)]YNpg] (H-[AllylGly]KK[AllylGly]Y[tBuAla]-OH; staple 1-4), the IC50 was over 100 µM in assay [1] and 44.4 nM in assay [2]. In addition, in assay [2], the Selectivity is recorded as over 2252.

On to `CC(C)C[C@H](NC(=O)[C@H](Cc1ccc(O)cc1)NC(=O)[C@@H]1CC=CC[C@H](N)C(=O)N[C@@H](CCCCN)C(=O)N[C@@H](CCCN)C(=O)N1)C(=O)O` [compound 51, c[G(All)KOrnG(All)]YL] (H-[AllylGly]K[Orn][AllylGly]YL-OH; staple 1-4), for which the results for the concentration for half-maximal inhibition (IC50) in assay [1] and in assay [2] were over 100 µM and 70.3 nM, respectively. In assay [2], the Selectivity was over 1422.

In the case of `CC(C)C[C@H](NC(=O)[C@H](Cc1ccc(O)cc1)NC(=O)[C@@H]1CC=CC[C@H](N)C(=O)N[C@@H](CCCCN)C(=O)N[C@@H](CCN)C(=O)N1)C(=O)O` [compound 52, c[G(All)KDabG(All)]YL] (H-[AllylGly]K[Dab][AllylGly]YL-OH; staple 1-4), the IC50 in assay [1] was over 100 µM; in assay [2], 244 nM. The Selectivity in assay [2] is on record as over 409.3.

As to `CC(C)C[C@H](NC(=O)[C@H](Cc1ccc(O)cc1)NC(=O)[C@@H]1CC=CC[C@H](N)C(=O)N[C@@H](CCCCN)C(=O)N[C@@H](CN)C(=O)N1)C(=O)O` [compound 53, c[G(All)KDapG(All)]YL] (H-[AllylGly]K[Dap][AllylGly]YL-OH; staple 1-4), the half-inhibitory concentration (IC50) in assay [1] is over 100 µM. For the same molecule, in assay [2], the IC50 was 204 nM and the Selectivity is given as over 490.9.

Consider `CC(C)C[C@H](NC(=O)[C@H](Cc1ccc(O)cc1)NC(=O)[C@@H]1CC=CC[C@H](N)C(=O)N[C@@H](CCCCN)C(=O)N[C@H](CCCCN)C(=O)N1)C(=O)O` [compound 54, c[G(All)KK*G(All)]YL] (H-[AllylGly]K[dK][AllylGly]YL-OH; staple 1-4), for which the figures for the IC50 in assay [1] and in assay [2] were over 100 µM and 321 nM, respectively. For the same molecule, the Selectivity in assay [2] is given as over 311.9.

For `CC(C)C[C@H](NC(=O)[C@H](Cc1ccc(O)cc1)NC(=O)[C@@H]1CC=CC[C@H](N)C(=O)N[C@@H](CCCCN)C(=O)N[C@@H](Cc2c[nH]cn2)C(=O)N1)C(=O)O` [compound 55, c[G(All)KHG(All)]YL] (H-[AllylGly]KH[AllylGly]YL-OH; staple 1-4), in assay [1], the IC50 was over 100 µM. Besides, in assay [2], the 50% inhibitory concentration (IC50) is 570 nM and the Selectivity is recorded as over 175.

With `CCCC[C@@H]1NC(=O)[C@H](CCCCN)NC(=O)[C@@H](N)CC=CC[C@@H](C(=O)N[C@@H](Cc2ccc(O)cc2)C(=O)N[C@@H](CC(C)C)C(=O)O)NC1=O` [compound 57, c[G(All)KNleG(All)]YL] (H-[AllylGly]K[Nle][AllylGly]YL-OH; staple 1-4), the IC50 in assay [1] was over 100 µM. Besides, in assay [2], the concentration for half-maximal inhibition (IC50) was 716 nM and the Selectivity is listed as over 140.

On to `CCC[C@@H]1NC(=O)[C@H](CCCCN)NC(=O)[C@@H](N)CC=CC[C@@H](C(=O)N[C@@H](Cc2ccc(O)cc2)C(=O)N[C@@H](CC(C)C)C(=O)O)NC1=O` [compound 58, c[G(All)KNvaG(All)]YL] (H-[AllylGly]K[Nva][AllylGly]YL-OH; staple 1-4), for which the values for the IC50 in assay [1] and in assay [2] were over 100 µM and 729 nM, respectively. The Selectivity in assay [2] is over 137.

For the molecule `CC(C)C[C@H](NC(=O)[C@H](Cc1ccc(O)cc1)NC(=O)[C@@H]1CC=CC[C@H](N)C(=O)N[C@@H](CCCCN)C(=O)NCC(=O)N1)C(=O)O` [compound 59, c[G(All)KGG(All)]YL] (H-[AllylGly]KG[AllylGly]YL-OH; staple 1-4), the concentration for half-maximal inhibition (IC50) in assay [1] was over 100 µM. Moreover, in assay [2], the IC50 was 2130 nM and the Selectivity was over 47.

As to `CC(C)C[C@H](NC(=O)[C@H](Cc1ccc(O)cc1)NC(=O)[C@@H]1CC=CC[C@H](N)C(=O)N[C@@H](CCCCN)C(=O)N[C@@H](CCC(=O)O)C(=O)N1)C(=O)O` [compound 61, c[G(All)KEG(All)]YL] (H-[AllylGly]KE[AllylGly]YL-OH; staple 1-4), the IC50 in assay [1] is over 100 µM. In assay [2], the IC50 is 12400 nM and the Selectivity is on record as over 8.

As to `COc1ccc(C[C@H](NC(=O)[C@H](Cc2ccc(O)cc2)NC(=O)[C@@H]2CC=CC[C@H](N)C(=O)N[C@@H](CCCCN)C(=O)N[C@@H](CCCCN)C(=O)N2)C(=O)O)cc1` [compound 62, c[G(All)KKG(All)]YY(OMe)] (H-[AllylGly]KK[AllylGly]YY(Me)-OH; staple 1-4), the figures for the IC50 in assay [1] and in assay [2] were over 100 µM and 166 nM, respectively. Besides, the Selectivity in assay [2] is on record as over 602.

Turning to `NCCCC[C@@H]1NC(=O)[C@H](CCCCN)NC(=O)[C@@H](N)CC=CC[C@@H](C(=O)N[C@@H](Cc2ccc(O)cc2)C(=O)N[C@@H](Cc2cc(F)c(F)cc2F)C(=O)O)NC1=O` [compound 63, c[G(All)KKG(All)]YF(2,4,5-trifluoro)] (H-[AllylGly]KK[AllylGly]Y[X2]-OH; staple 1-4), the IC50 in assay [1] was over 100 µM; in assay [2], 366 nM. The Selectivity in assay [2] was over 273.

For `NCCCC[C@@H]1NC(=O)[C@H](CCCCN)NC(=O)[C@@H](N)CC=CC[C@@H](C(=O)N[C@@H](Cc2ccc(O)cc2)C(=O)N[C@@H](CCC2CCCCC2)C(=O)O)NC1=O` [compound 64, c[G(All)KKG(All)]YA(homoChA)] (H-[AllylGly]KK[AllylGly]Y[hCha]-OH; staple 1-4), the half-maximal inhibitory concentration (IC50) in assay [1] is over 100 µM. Moreover, in assay [2], the IC50 is 7.74 nM and the Selectivity was >12 920.

On to `NCCCC[C@@H]1NC(=O)[C@H](CCCCN)NC(=O)[C@@H](N)CC=CC[C@@H](C(=O)N[C@@H](Cc2ccc(O)cc2)C(=O)N[C@@H](CC2CC2)C(=O)O)NC1=O` [compound 65, c[G(All)KKG(All)]YA(cyclopropyl)] (H-[AllylGly]KK[AllylGly]Y[Ala(cPr)]-OH; staple 1-4), for which the IC50 in assay [1] is over 100 µM. In assay [2], the 50% inhibitory concentration (IC50) was 312 nM and the Selectivity was over 321.

On to `NCCCC[C@@H]1NC(=O)[C@H](CCCCN)NC(=O)[C@@H](N)CC=CC[C@@H](C(=O)N[C@@H](Cc2ccc(O)cc2)C(=O)N[C@@H](CC2CCC2)C(=O)O)NC1=O` [compound 66, c[G(All)KKG(All)]YA(cyclobutyl)] (H-[AllylGly]KK[AllylGly]Y[Cba]-OH; staple 1-4), for which the results for the half-maximal inhibitory concentration (IC50) in assay [1] and in assay [2] were over 100 µM and 27.2 nM, respectively. Also, the Selectivity in assay [2] was over 3682.
